The results in this text go back to patent US20200095236A1, “ANTIBACTERIAL COMPOUNDS” (FORGE THERAPEUTICS, INC., priority 2017, published 2020).

The subject of assay [1] is TLR-4 activity of A. baumannii culture supernatants. The assay is described as follows: TLR4 assay: TLR4 activity of A. baumannii culture supernatants in HEK-Blue-hTLR4 cells. The format is cell-based. The note with it: Acinetobacter baumannii, HEK-Blue hTLR4, read-out: % TLR-4 activity. Here is the method: The TLR4 assay measures activity of diluted filter-sterilized A. baumannii culture supernatants. The assay was performed as described in Lin et al, Mbio, 2012. Briefly, A. baumannii was passaged to mid log-phase in the presence of Forge LpxC inhibitors. Culture supernatants were harvested, filter-sterilized and diluted 1:1000. TLR4 activity of the supernatants was tested using HEK-Blue-hTLR4 cells (Invivogen) that carry NF-kB and AP-1 driven SEAP (secreted embryonic alkaline phosphatase) reporter gene.
Exemplary TLR4 assay data (% TLR-4 activity) for compounds in embodiments of the disclosure.

Assay [2] concerns E. coli. Briefly: Bacterial susceptibility testing, MIC by broth microdilution (CLSI). As to conditions: Escherichia coli, read-out: E. coli MIC. The format is cell-based. As for the experimental part:
(§1) Minimal inhibitory concentrations (MIC) were determined by the broth microdilution method in accordance with the Clinical and Laboratory Standards Institute (CLSI) guidelines. In brief, organism suspensions were adjusted to a 0.5 McFarland standard to yield a final inoculum between 3×10^5 and 7×10^5 colony-forming units (CFU)/mL. Drug dilutions and inocula were made in sterile, cation adjusted Mueller-Hinton Broth (Beckton Dickinson). An inoculum volume of 100 μL was added to wells containing 100 μL of broth with 2-fold serial dilutions of drug. All inoculated microdilution trays were incubated in ambient air at 35° C. for 18-24 h. Following incubation, the lowest concentration of the drug that prevented visible growth (OD600 nm<0.05) was recorded as the MIC. Performance of the assay was monitored by the use of laboratory quality-control strains and levofloxacin, a compound with a defined MIC spectrum, in accordance with CLSI guidelines.
On the technique in general: Broth dilution looks for growth in wells or tubes with falling amounts of substance.

The subject of assay [3] is K. pneumoniae. The assay is described as above. The note with it: Klebsiella pneumoniae, read-out: K. pneumoniae MIC. The format is cell-based. Here is the method:
as §1

For assay [4], the system named is S. aureus. The description is as above. The format is cell-based. As to conditions: Staphylococcus aureus, read-out: S. aureus MIC. As for the experimental part: as §1
The target of assay [5] is E. coli LpxC (Escherichia coli, UniProt P0A725). The assay is described as follows: LpxC Binding Assay (Rapid Fire MS assay). The format is biochemical.
The mark [6] stands for this setting: broth microdilution, 35° C., 18-24 h.

≈ marks a conversion by molar mass, not a printed value. Like-named read-outs stand apart in the source and are kept apart here.

Chain of E. coli LpxC (P0A725 whole entry): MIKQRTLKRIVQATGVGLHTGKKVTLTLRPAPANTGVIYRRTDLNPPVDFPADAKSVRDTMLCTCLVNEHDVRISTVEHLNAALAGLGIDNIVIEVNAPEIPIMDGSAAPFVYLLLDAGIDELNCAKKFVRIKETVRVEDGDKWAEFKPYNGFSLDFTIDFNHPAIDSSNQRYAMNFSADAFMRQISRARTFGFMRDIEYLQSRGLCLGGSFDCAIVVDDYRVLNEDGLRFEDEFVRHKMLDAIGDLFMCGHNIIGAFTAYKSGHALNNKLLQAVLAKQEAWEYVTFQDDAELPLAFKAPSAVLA

Turning to `O=C(NCC(F)F)C(Cc1ccc(C#Cc2ccc(CN3CCOCC3)cc2)cc1)c1nc[nH]c(=O)c1O` (stereo not drawn) [Compound 1, N-(2,2-difluoroethyl)-2-(5-hydroxy-6-oxo-1,6-dihydropyrimidin-4-yl)-3-(4-((4-(morpholinomethyl)phenyl)ethynyl)phenyl) propanamide], in assay [1], the activity at 4 µg/mL was less than 20%, the activity at 8 µg/mL is less than 20% and the activity at 16 µg/mL was less than 20%. Further, in assay [2] (setting [6]), the MIC is less than 1 µg/mL. Besides, the MIC in assay [3] (setting [6]) lay within 1 to 8 µg/mL (≈ 1.91 to 15.3 µM). Also, the minimal inhibitory concentration (MIC) in assay [4] (setting [6]) is more than 32 µg/mL. The compound further yielded a concentration for half-maximal inhibition (IC50) in assay [5] of less than 10 nM.

In the case of `O=C(NCC(F)(F)F)C(Cc1ccc(C#Cc2ccc(CN3CCOCC3)cc2)cc1)c1nc[nH]c(=O)c1O` (stereo not drawn) [Compound 2, 2-(5-hydroxy-6-oxo-1,6-dihydropyrimidin-4-yl)-3-(4-((4-(morpholinomethyl)phenyl)ethynyl)phenyl)-N-(2,2,2-trifluoroethyl) propanamide], in assay [1], the activity at 4 µg/mL was less than 20%, the activity at 8 µg/mL was less than 20% and the activity at 16 µg/mL is less than 20%. Also, the MIC in assay [2] (setting [6]) was less than 1 µg/mL. In addition, the MIC in assay [3] (setting [6]) fell in the range of 1 to 8 µg/mL (≈ 1.85 to 14.8 µM). In addition, the minimal inhibitory concentration (MIC) in assay [4] (setting [6]) was more than 32 µg/mL. The same compound had an IC50 in assay [5] of 10 to 50 nM.

For the compound `O=C(CF)NCC(Cc1ccc(C#Cc2ccc(CN3CCOCC3)cc2)cc1)c1nc[nH]c(=O)c1O` (stereo not drawn) [Compound 12, 2-fluoro-N-(2-(5-hydroxy-6-oxo-1,6-dihydropyrimidin-4-yl)-3-(4-((4-(morpholinomethyl)phenyl)ethynyl)phenyl)propyl) acetamide], the minimum inhibitory concentration (MIC) in assay [2] was less than 1 µg/mL; in assay [3] it was 1 to 8 µg/mL (≈ 1.98 to 15.9 µM); in assay [4], more than 32 µg/mL. Moreover, in assay [5], the IC50 lay within 10 to 50 nM.

As to `O=C1CCCN1Cc1ccc(C#Cc2ccc(CC(CNCCF)c3nc[nH]c(=O)c3O)cc2)cc1` (stereo not drawn) [Compound 55, 6-(1-((2-fluoroethyl)amino)-3-(4-((4-((2-oxopyrrolidin-1-yl)methyl)phenyl)ethynyl)phenyl)propan-2-yl)-5-hydroxypyrimidin-4(3H)-one], in assay [1], the activity at 4 µg/mL is more than 80%, the activity at 8 µg/mL lay in the range of 20 to 50% and the activity at 16 µg/mL lay in the range of 20 to 50%. This compound also had an IC50 in assay [5] of 10 to 50 nM.

On to `O=c1[nH]cnc(C(CNCC(F)F)Cc2ccc(C#Cc3ccc(CN4CCOCC4)cc3)cc2)c1O` (stereo not drawn) [Compound 57, 6-(1-((2,2-difluoroethyl)amino)-3-(4-((4-(morpholinomethyl)phenyl)ethynyl)phenyl)propan-2-yl)-5-hydroxypyrimidin-4(3H)-one], for which, in assay [1], the activity at 4 µg/mL is more than 80%, the activity at 8 µg/mL lay in the range of 50 to 80% and the activity at 16 µg/mL was in the range of 20 to 50%. The compound also came in with a concentration for half-maximal inhibition (IC50) in assay [5] of 100 to 1000 nM.

As for `CO[C@@H]1CCN(Cc2ccc(C#Cc3ccc(CC(C(=O)NCC(F)F)c4nc[nH]c(=O)c4O)cc3)cc2)C1` (stereo partly drawn) [Compound 106, N-(2,2-difluoroethyl)-2-(5-hydroxy-6-oxo-1,6-dihydropyrimidin-4-yl)-3-(4-((4-(((R)-3-methoxypyrrolidin-1-yl)methyl)phenyl)ethynyl)phenyl) propanamide], in assay [1], the activity at 4 µg/mL fell in the range of 50 to 80%, the activity at 8 µg/mL lay within 50 to 80% and the activity at 16 µg/mL lay in the range of 20 to 50%. In assay [5], the IC50 lay in the range of 100 to 1000 nM.

For the compound `COCCNC(=O)C(Cc1ccc(C#Cc2ccc(CN3CCOCC3)cc2)cc1)c1nc[nH]c(=O)c1O` (stereo not drawn) [Compound 153, 2-(5-hydroxy-6-oxo-1,6-dihydropyrimidin-4-yl)-N-(2-methoxyethyl)-3-(4-((4-(morpholinomethyl)phenyl)ethynyl)phenyl) propanamide], in assay [1], the activity at 4 µg/mL was more than 80%, the activity at 8 µg/mL fell in the range of 50 to 80% and the activity at 16 µg/mL is less than 20%. The IC50 in assay [5] lay in the range of 10 to 50 nM.

The compound `O=C(NC1CC(F)(F)C1)C(Cc1ccc(C#Cc2ccc(CN3CCOCC3)cc2)cc1)c1nc[nH]c(=O)c1O` (stereo not drawn) [Compound 154, N-(3,3-difluorocyclobutyl)-2-(5-hydroxy-6-oxo-1,6-dihydropyrimidin-4-yl)-3-(4-((4-(morpholinomethyl)phenyl)ethynyl)phenyl) propanamide] displayed a half-inhibitory concentration (IC50) in assay [5] of 50 to 100 nM.

Take `N#CC1CN(Cc2ccc(C#Cc3ccc(CC(C(=O)NCCF)c4nc[nH]c(=O)c4O)cc3)cc2)C1` (stereo not drawn) [Compound 165, 3-(4-((4-((3-cyanoazetidin-1-yl)methyl)phenyl)ethynyl)phenyl)-N-(2-fluoroethyl)-2-(5-hydroxy-6-oxo-1,6-dihydropyrimidin-4-yl)propanamide]: the 50% inhibitory concentration (IC50) in assay [5] was less than 10 nM.

`O=c1[nH]cnc(C(CNCCF)Cc2ccc(C#Cc3ccc(CO)cc3)cc2)c1O` (stereo not drawn) [Compound 195, 6-(1-((2-fluoroethyl)amino)-3-(4-((4-(hydroxymethyl)phenyl)ethynyl)phenyl)propan-2-yl)-5-hydroxypyrimidin-4(3H)-one]: in assay [1], the activity at 4 µg/mL lay in the range of 50 to 80%, the activity at 8 µg/mL is less than 20% and the activity at 16 µg/mL was less than 20%. In assay [5], this compound had a half-inhibitory concentration (IC50) of 100 to 1000 nM.

The compound `O=c1[nH]cnc(C(CNCCF)Cc2ccc(C#Cc3ccc(CNC4CCOC4)cc3)cc2)c1O` (stereo not drawn) [Compound 198, 6-(1-((2-fluoroethyl)amino)-3-(4-((4-(((tetrahydrofuran-3-yl)amino)methyl)phenyl)ethynyl)phenyl)propan-2-yl)-5-hydroxypyrimidin-4(3H)-one] gave a 50% inhibitory concentration (IC50) in assay [5] of 100 to 1000 nM.

`O=c1[nH]cnc(C(CNCCF)Cc2ccc(C#Cc3ccc(CNC4COC4)cc3)cc2)c1O` (stereo not drawn) [Compound 207, 6-(1-((2-fluoroethyl)amino)-3-(4-((4-((oxetan-3-ylamino)methyl)phenyl)ethynyl)phenyl)propan-2-yl)-5-hydroxypyrimidin-4(3H)-one] had an IC50 in assay [5] of 50 to 100 nM.

Take `N#CC1CN(Cc2ccc(C#Cc3ccc(CC(CNCCF)c4nc[nH]c(=O)c4O)cc3)cc2)C1` (stereo not drawn) [Compound 209, 1-(4-((4-(3-((2-fluoroethyl)amino)-2-(5-hydroxy-6-oxo-1,6-dihydropyrimidin-4-yl)propyl)phenyl)ethynyl)benzyl) azetidine-3-carbonitrile]: the IC50 in assay [5] was 10 to 50 nM.

Take `O=c1[nH]cnc(C(CNCCF)Cc2ccc(C#Cc3ccc(CN4CC5CCC(C4)O5)cc3)cc2)c1O` (stereo not drawn) [Compound 215, 6-(1-(4-((4-((8-oxa-3-azabicyclo[3.2.1]octan-3-yl)methyl)phenyl)ethynyl)phenyl)-3-((2-fluoroethyl)amino)propan-2-yl)-5-hydroxypyrimidin-4(3H)-one]: in assay [1], the activity at 4 µg/mL lay within 20 to 50%, the activity at 8 µg/mL fell in the range of 20 to 50% and the activity at 16 µg/mL was less than 20%. The compound also yielded a 50% inhibitory concentration (IC50) in assay [5] of 100 to 1000 nM.

Turning to `C[C@@H]1CN(Cc2ccc(C#Cc3ccc(CC(CNCCF)c4nc[nH]c(=O)c4O)cc3)cc2)C[C@@H](C)O1` (stereo partly drawn) [Compound 218, 6-(1-(4-((4-(((2R,6R)-2,6-dimethylmorpholino)methyl)phenyl)ethynyl)phenyl)-3-((2-fluoroethyl)amino)propan-2-yl)-5-hydroxypyrimidin-4(3H)-one], the half-maximal inhibitory concentration (IC50) in assay [5] was 100 to 1000 nM.

`O=c1[nH]cnc(CCc2ccc(C#Cc3ccc(CNC4CC(O)C4)cc3)cc2)c1O` (stereo not drawn) [Compound 243, 5-hydroxy-6-(4-((4-(((3-hydroxycyclobutyl)amino)methyl)phenyl)ethynyl)phenethyl)pyrimidin-4(3H)-one] registered an IC50 in assay [5] of 10 to 50 nM.

With `O=c1[nH]cnc(CCc2ccc(C#Cc3ccc(CNC4CCOCC4)cc3)cc2)c1O` [Compound 244, 5-hydroxy-6-(4-((4-(((tetrahydro-2H-pyran-4-yl)amino)methyl)phenyl)ethynyl)phenethyl)pyrimidin-4(3H)-one], the figures for the MIC in assay [2] (setting [6]), in assay [3] (setting [6]) and in assay [4] (setting [6]) were less than 1 µg/mL, less than 1 µg/mL and more than 32 µg/mL, respectively. Besides, the half-maximal inhibitory concentration (IC50) in assay [5] is 100 to 1000 nM.

Consider `O=c1[nH]cnc(CCc2ccc(C#Cc3cccc(Cl)c3)cc2)c1O` [Compound 248, 6-(4-((3-chlorophenyl)ethynyl)phenethyl)-5-hydroxypyrimidin-4(3H)-one], for which the MIC in assay [2] (setting [6]) and in assay [3] (setting [6]) was more than 32 µg/mL each time. This compound returned an IC50 in assay [5] of 100 to 1000 nM.

As to `O=c1[nH]cnc(C(CNCc2cccnc2)Cc2ccc(C#Cc3ccc(CN4CCOCC4)cc3)cc2)c1O` (stereo not drawn) [Compound 250, 5-hydroxy-6-(1-(4-((4-(morpholinomethyl)phenyl)ethynyl)phenyl)-3-((pyridin-3-ylmethyl)amino)propan-2-yl)pyrimidin-4(3H)-one], the MIC in assay [2] (setting [6]) was less than 1 µg/mL; in assay [3] (setting [6]), more than 32 µg/mL. In assay [5], this compound registered a half-inhibitory concentration (IC50) of less than 10 nM.

In the case of “N-(2,2-difluoroethyl)- 2-(5-hydroxy-6-oxo- 1,6-dihydropyrimidin- 4-yl)-3-(4-((4- (hydroxymethyl) phenyl)ethynyl)phenyl) propanamide [Compound 108]”, the IC50 in assay [5] lay in the range of 10 to 50 nM.

As a reminder, the MIC is the lowest concentration found to suppress growth. By IC50 is commonly meant the concentration that gives 50% inhibition. A lower IC50 goes with greater potency in that assay.
